# Literature values in patent US20250326722A1 (SHANGHAI HANSOH BIOMEDICAL CO., LTD., priority 2022, published 2025).
# Test system: LDL-C
# Details: combined with a statin; cited from earlier work
smiles,measurement,value
O=C1[C@H](CC[C@H](O)c2ccc(F)cc2)[C@@H](c2ccc(O)cc2)N1c1ccc(F)cc1 [Ezetimibe],LDL-C reduction,15-20%
